Measurements published in patent US20150237857A1, “ANTIBACTERIAL INHIBITORS” (MCMASTER UNIVERSITY, priority 2012, published 2015).
≈ marks a conversion by molar mass, not a printed value. Entries after “also recorded” stand apart in the source; their conditions may differ. Like-named read-outs stand apart in the source and are kept apart here.

Experiments:
[1] = tested on: E. coli MG1655; assay: Metabolic suppression profiling (ChemArray); assay type: cell-based
[2] = molecular target: recombinant E. coli BioA (Escherichia coli, UniProt P12995); assay: BioA inhibition through a feeding assay of a bioA auxotroph; assay type: biochemical
Protocol: To determine if the step catalyzed by BioA was the target of this inhibitor, the inhibitory activity of MAC-0013772 against recombinant E. coli BioA was assayed through a feeding assay of a bioA auxotroph.

[3] = molecular target: BioA (Escherichia coli, UniProt P12995); assay: UV-visible spectra of BioA titrated with inhibitor; assay type: binding, E. coli
Protocol: To further determine if the inhibition of BioA by MAC13772 is mediated through the interaction of the hydrazine moiety in the compound with PLP in the active site of the enzyme, the UV-visible spectra of BioA was assessed when titrated with the inhibitor.

[4] = tested on: Mycobacteria smegmatis; assay: MIC against Mycobacteria smegmatis in absence and presence of biotin; assay type: cell-based
[5] = tested on: Acinetobacter baumannii; assay: Activity against other organisms; assay type: cell-based
Protocol: (§1) The activity of MAC13772 was tested against a number of organisms in addition to Escherichia coli using methods similar to those described in Example 2.

[6] = tested on: Bacillus subtilis; assay: Activity against other organisms; assay type: cell-based
Protocol: as §1

[7] = tested on: Klebsiella pneumonia; assay: Activity against other organisms; assay type: cell-based
Protocol: as §1

[8] = tested on: Mycobacterium tuberculosis; assay: Activity against other organisms; assay type: cell-based
Protocol: as §1

[9] = tested on: Salmonella typhimurium; assay: Activity against other organisms; assay type: cell-based
Protocol: as §1

[10] = tested on: Staphylococcus aureus; assay: Activity against other organisms; assay type: cell-based
Protocol: as §1

[11] = tested on: E. coli MG1655; assay: Minimum inhibitory concentration (MIC) determination; conditions: for MIC: Escherichia coli; for effect of intermediates of biotin biosynthesis on inhibitory activity (in words): KAPA, DAPA, DTB, biotin in media; for Fold suppression: MIC with supplement / MIC without
Protocol: The MIC values were determined in liquid minimal media and minimal media supplemented with amino acids, vitamins and nucleobases.
A single colony of E. coli MG1655 was grown overnight in 5 ml of M9 minimal media. The saturated culture was diluted 1/50 in fresh minimal media and allowed to grow until the OD600 reached ˜0.4. […] After mixing of the bacterial culture with the compounds, the OD600 of the plates was read using Envision to account for background absorbance. The plates were then incubated in a 37° C. stationary incubator for 16 hours before measuring their OD600. After subtracting any background absorbance contributed by colored or precipitated compounds, the MIC was defined as the lowest concentration of antibiotic that inhibits visible growth.

[12] = molecular target: T1, recombinant PabA, PabB and PabC (Escherichia coli, UniProt P00903+P05041+P28305); assay: biochemical; design: species or system E. coli
T1 construct: poly-histidine (pDEST17) (N); made in house; host or cells: E. coli BL21AI (pDEST17, arabinose induction)
Protocol: Enzyme assays were conducted in triplicate at room temperature with 25 nM of PabA and PabB, 50 nM of PabC, 50 mM Tris-HCl (pH 7.5), 20 μM PLP, 1 mM L-glutamine, 40 μM chorismate and the indicated concentrations of MAC-173979. The inhibition assays were initiated by addition of a mixture of the three enzymes and quenched with an equal volume of freshly prepared 8M urea. The reaction progress curves were monitored every 10 minutes for 60 minutes and determined by a stopped HPLC-assay that allowed for the quantification of the conversion of chorismate to PABA. The two compounds were separated on a C18 reverse phase column (Nova-Pak C18, 4 μm, 3.9×150 mm, Waters) and eluted isocratically with 5% acetic acid in double distilled H2O. The analytes were visualized by UV absorbance at 275 nm and identified by comparing their retention times and UV absorption spectra to authentic standards. The progress curves were plotted to the rate equation of slow-binding inhibition: […]
using Sigma Plot 12.0 (SPSS, Inc., Chicago, Ill.), where v0 and vs are the initial and final steady-state reaction velocities, respectively, t is the time and kobs is the apparent first order rate constant for the interconversion between the initial and steady-state rates.
In order to directly test the biochemical activity of MAC-0173979 on PABA synthesis, an HPLC-based one-pot enzyme assay using recombinant PabA, PabB and PabC was set up and the formation of PABA was monitored by measuring its absorbance at 275 nm.
MAC173979 and an analog lacking the Michael acceptor (0-1000 μM) were each incubated with the PABA enzymes for 30 minutes prior to substrate addition. Reactions were quenched after 30 minutes with 8 M urea and analyzed by HPLC.

[13] = tested on: E. coli wild-type, ΔltaEΔtdh and ΔltaEΔtdhΔkbl strains

T1 sequence (P00903 whole entry): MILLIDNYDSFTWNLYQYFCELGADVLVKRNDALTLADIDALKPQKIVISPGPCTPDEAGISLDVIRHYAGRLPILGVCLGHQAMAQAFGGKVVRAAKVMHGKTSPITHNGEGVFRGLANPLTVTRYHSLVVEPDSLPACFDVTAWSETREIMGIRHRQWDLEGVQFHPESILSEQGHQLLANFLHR
T1 sequence (P05041 whole entry): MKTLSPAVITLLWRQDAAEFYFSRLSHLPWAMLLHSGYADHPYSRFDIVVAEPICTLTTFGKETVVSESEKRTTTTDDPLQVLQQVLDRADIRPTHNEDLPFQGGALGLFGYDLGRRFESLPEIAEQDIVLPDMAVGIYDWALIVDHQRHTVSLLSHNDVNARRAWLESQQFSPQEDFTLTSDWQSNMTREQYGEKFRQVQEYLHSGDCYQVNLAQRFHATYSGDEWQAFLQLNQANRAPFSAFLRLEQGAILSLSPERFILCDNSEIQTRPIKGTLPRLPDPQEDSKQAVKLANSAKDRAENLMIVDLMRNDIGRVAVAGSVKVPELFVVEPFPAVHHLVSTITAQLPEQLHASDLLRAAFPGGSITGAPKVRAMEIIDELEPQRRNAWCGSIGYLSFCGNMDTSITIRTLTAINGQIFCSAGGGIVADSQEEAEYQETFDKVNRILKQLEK
T1 sequence (P28305 whole entry): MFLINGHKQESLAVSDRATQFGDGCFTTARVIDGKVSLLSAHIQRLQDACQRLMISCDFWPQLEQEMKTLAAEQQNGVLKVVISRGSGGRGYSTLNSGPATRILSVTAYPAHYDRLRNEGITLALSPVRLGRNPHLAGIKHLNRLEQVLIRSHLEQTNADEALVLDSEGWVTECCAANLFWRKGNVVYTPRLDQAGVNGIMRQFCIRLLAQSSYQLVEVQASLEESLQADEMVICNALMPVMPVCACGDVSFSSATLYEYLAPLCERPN
BioA, sequence (P12995 whole entry): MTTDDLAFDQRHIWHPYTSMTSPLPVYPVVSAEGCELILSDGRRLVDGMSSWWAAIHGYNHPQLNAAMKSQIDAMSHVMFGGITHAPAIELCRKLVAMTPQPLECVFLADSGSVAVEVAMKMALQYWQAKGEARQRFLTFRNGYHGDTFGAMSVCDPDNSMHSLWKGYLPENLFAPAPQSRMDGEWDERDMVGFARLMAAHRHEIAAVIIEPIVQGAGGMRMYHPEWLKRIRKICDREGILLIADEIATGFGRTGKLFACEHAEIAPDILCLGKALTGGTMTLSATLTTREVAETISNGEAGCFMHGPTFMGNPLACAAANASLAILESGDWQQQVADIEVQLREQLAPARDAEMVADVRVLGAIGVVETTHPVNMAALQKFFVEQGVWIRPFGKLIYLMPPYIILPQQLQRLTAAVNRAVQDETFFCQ
recombinant E. coli BioA, sequence (P12995 whole entry): as above

With `NNC(=O)CSc1ccccc1[N+](=O)[O-]` [MAC13772, 2-(2-nitrophenylthio) acetohydrazide] the “suppression of growth inhibitory activity by biotin” value ([1]; biotin in the growth media) was “uniquely suppressed by biotin”, the IC50 [2] was about 0.25 µM and the “stoichiometry of protein-ligand interaction (molar ratio plot)” value ([3]; [inhibitor]/[BioA]) was “stoichiometric”. For the same molecule, the “λmax of PLP-bound BioA after interaction with inhibitor” value ([3]; shift from 420 nm (internal aldimine) to PLP-inhibitor adduct) was 393 nm, the MIC ([4]; absence of biotin, read-out: MIC −bio) was 4 µg/mL and the MIC ([4]; presence of 2 nM of biotin, read-out: MIC +bio) was over 256 µg/mL. For the same molecule, the antibacterial activity [5] was “active”, the antibacterial activity [6] was “active” and the antibacterial activity [7] was “active”. For the same molecule, the antibacterial activity [8] was “active”, the antibacterial activity [9] was “active” and the antibacterial activity [10] was “active”. The MIC ([11]; MG1655, read-out: MIC −bio, absence of biotin) was 8 µg/mL (≈ 35.2 µM), the MIC ([11]; MG1655, supplement: AA + VIT + NUC) was over 256 µg/mL and the MIC ([11]; MG1655, supplement: BIOTIN) was over 256 µg/mL. The MIC ([11]; MG1655, supplement: DAPA) was over 256 µg/mL, the MIC ([11]; MG1655, supplement: DTB) was over 256 µg/mL and the MIC ([11]; MG1655, supplement: KAPA) was 8 µg/mL (≈ 35.2 µM). The “effect of intermediates of biotin biosynthesis on inhibitory activity (in words)” value ([11]; listed as MAC-0013372) was “KAPA had no effect”, the “effect of intermediates of biotin biosynthesis on inhibitory activity (in words)” value ([11]; listed as MAC-0013772) was “fully reversed by DAPA, DTB and biotin” and the Fold suppression ([11]; supplement: AA + VIT + NUC) was 32. The Fold suppression ([11]; supplement: BIOTIN) was 32, the Fold suppression ([11]; supplement: DAPA) was 32 and the Fold suppression ([11]; supplement: DTB) was 32. The Fold suppression ([11]; supplement: KAPA) was 1.
In the case of `O=C(C=C(Cl)Cl)c1cccc([N+](=O)[O-])c1` [MAC-0173979, 3,3-dichloro-1-(3-nitrophenyl)prop-2-en-1-one], the “suppression of growth inhibitory activity by p-aminobenzoic acid (PABA)” value ([1]; 4× MIC in M9 minimal media, PABA in growth media) is reported as “suppressed; also recorded: fully reversed”, the “suppression of growth inhibitory activity by methionine” value ([1]; 4× MIC in M9 minimal media, methionine in growth media) is reported as “to a certain extent; also recorded: fully reversed” and the IC50 [12] is reported as 30 ± 2 µM. For the same molecule, the Ki [12] was 7.3 ± 1.3 µM, the “mechanism of inhibition of PABA synthesis” value ([12]; progress curves, kobs plot) was “irreversible time-dependent inhibitor” and the “fold suppression of MIC on addition of PABA” value ([11]; PABA added to the growth media) was 16 fold.
For `O=C(CC(Cl)Cl)c1cccc([N+](=O)[O-])c1` [analog lacking the Michael acceptor, 3,3-dichloro-1-(3-nitrophenyl)propan-1-one], the IC50 [12] was 60 ± 7 µM.
For `COc1ccc(C(=O)CCN(C)C)cc1` [MAC-0168425, 3-(dimethylamino)-1-(4-methoxyphenyl)propan-1-one], the “suppression of growth inhibitory activity by L-serine” value ([1]; 4× MIC in M9 minimal media, L-serine) was “not suppressed”, the “suppression of growth inhibitory activity by L-threonine” value ([1]; 4× MIC in M9 minimal media, L-threonine) was “partially suppressed” and the “suppression of growth inhibitory activity by glycine” value ([1]; 4× MIC in M9 minimal media, glycine) was “strongly suppressed”. For the same molecule, the “fold shift in MIC” value ([13]; wild-type strain, 40-640 μg/ml L-threonine) was 4-8 fold, the “fold shift in MIC” value ([13]; ΔltaEΔtdh double deletion strain, 320-640 μg/ml L-threonine) was 2 fold and the “suppression of activity by L-threonine” value ([13]; ΔltaEΔtdhΔkbl triple deletion mutant) was “completely lost”.
